Data from patent US20250059217A1, “HETEROCYCLIC COMPOUNDS AND METHODS OF PREPARATION THEREOF” (priority 2021, published 2025).
Structures can show the parent of a compound that is named as a salt. Where two headings read alike, the source gives them in different places.

Experiments:
5-HT2B receptor = target: T1, 5-HT2B receptor (Homo sapiens, UniProt P41595); assay: Serotonin receptor 5-HT2 functional assay (Gq dissociation BRET or Gq-dependent calcium flux), 5-HT2B; assay type: cell-based; conditions: Table 4, at least three replicate trials; for EC50 / 5-HT2B BRET EC50 (nM): relative to 4-hydroxytryptamine; for 5-HT2B BRET Eff %: efficacy relative to 4-hydroxytryptamine
T1 construct: expressed in transfected cells; host or cells: HEK293T
T1 sequence (P41595 whole entry): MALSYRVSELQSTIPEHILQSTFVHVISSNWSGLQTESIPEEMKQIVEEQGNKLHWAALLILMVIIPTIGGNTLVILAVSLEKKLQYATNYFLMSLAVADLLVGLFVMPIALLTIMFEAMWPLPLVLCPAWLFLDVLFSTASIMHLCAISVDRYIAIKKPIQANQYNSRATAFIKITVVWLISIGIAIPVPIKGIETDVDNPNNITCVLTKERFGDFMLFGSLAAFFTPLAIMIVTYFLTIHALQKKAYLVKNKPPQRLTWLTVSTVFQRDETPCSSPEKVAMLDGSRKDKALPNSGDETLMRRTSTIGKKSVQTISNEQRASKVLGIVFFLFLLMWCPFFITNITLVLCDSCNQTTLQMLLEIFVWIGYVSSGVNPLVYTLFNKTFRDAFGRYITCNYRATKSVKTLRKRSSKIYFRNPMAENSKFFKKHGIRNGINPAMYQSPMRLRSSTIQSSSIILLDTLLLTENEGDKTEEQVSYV

5-HT2A receptor = target: T2, 5-HT2A receptor (Homo sapiens, UniProt P28223); assay: Serotonin receptor 5-HT2 functional assay (Gq dissociation BRET or Gq-dependent calcium flux), 5-HT2A; assay type: cell-based; conditions: for 5-HT2A BRET Eff %: efficacy relative to 4-hydroxytryptamine
T2 construct: expressed in transfected cells; host or cells: HEK293T
T2 sequence (P28223 whole entry): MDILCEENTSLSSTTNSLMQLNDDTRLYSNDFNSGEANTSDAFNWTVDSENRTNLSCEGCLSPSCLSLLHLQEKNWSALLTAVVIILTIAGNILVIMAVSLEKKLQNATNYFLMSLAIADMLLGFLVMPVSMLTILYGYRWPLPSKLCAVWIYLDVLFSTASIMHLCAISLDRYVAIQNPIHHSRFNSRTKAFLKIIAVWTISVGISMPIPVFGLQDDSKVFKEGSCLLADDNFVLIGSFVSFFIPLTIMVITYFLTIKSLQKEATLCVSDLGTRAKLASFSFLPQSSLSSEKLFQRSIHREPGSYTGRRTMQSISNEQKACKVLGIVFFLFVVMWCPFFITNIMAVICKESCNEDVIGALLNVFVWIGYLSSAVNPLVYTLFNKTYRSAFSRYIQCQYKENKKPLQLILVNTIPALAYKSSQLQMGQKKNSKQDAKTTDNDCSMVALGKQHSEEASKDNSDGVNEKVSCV

5-HT2C receptor = target: T3, 5-HT2C receptor (Homo sapiens, UniProt P28335); assay: cell-based
T3 construct: expressed in transfected cells; host or cells: HEK293T
T3 sequence (P28335 33-458): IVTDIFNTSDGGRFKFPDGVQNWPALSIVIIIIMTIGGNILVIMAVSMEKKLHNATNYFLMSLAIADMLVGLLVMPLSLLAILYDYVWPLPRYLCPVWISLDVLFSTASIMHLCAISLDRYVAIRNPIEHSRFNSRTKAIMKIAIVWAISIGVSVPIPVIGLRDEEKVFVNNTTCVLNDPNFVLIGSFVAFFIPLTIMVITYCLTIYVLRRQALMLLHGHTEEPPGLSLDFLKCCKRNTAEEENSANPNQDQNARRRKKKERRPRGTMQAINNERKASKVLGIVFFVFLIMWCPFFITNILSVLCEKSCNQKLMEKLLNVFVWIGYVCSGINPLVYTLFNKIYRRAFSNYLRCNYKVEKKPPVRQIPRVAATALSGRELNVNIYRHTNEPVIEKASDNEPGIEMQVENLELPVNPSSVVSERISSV

[1] = Table 4, at least three replicate trials
[2] = Table 4, efficacy relative to 4-hydroxytryptamine, at least three replicate trials
[3] = Table 4, relative to 4-hydroxytryptamine, at least three replicate trials, read-out: 5-HT2C BRET EC50
[4] = Table 4, relative to 4-hydroxytryptamine, at least three replicate trials, read-out: 5-HT2A BRET EC50
[5] = Table 4, relative to 4-hydroxytryptamine, at least three replicate trials

Row | Structure (SMILES) | EC50 (5-HT2B receptor; 5-HT2B BRET EC50 (nM)) | 5-HT2B BRET Eff % (5-HT2B receptor) | EC50 (5-HT2A receptor) | 5-HT2A BRET Eff % (5-HT2A receptor; [1]) | 5-HT2C BRET Eff % (5-HT2C receptor; [2]) | EC50 (5-HT2C receptor; [3]) | 5-HT2B BRET EC50 (nM) (5-HT2B receptor) | EC50 (5-HT2A receptor; [4]) | EC50 (5-HT2B receptor; read-out: 5-HT2B BRET EC50) | 5-HT2C BRET Eff % (5-HT2C receptor) | EC50 (5-HT2C receptor) | 5-HT2A BRET EC50 (nM) (5-HT2A receptor; [5])
1 | Cc1cccc2c(CCN(C)C)c[nH]c12 [7,N,N-TMT] | 74 nM | 36% | 232 nM | 80% | 79% | 11.7 nM | – | – | – | – | – | –
2 | Cc1ccc(OCc2ccc(C(F)(F)F)cc2)c2c(CCN(C)C)c[nH]c12 [Compound 39, Dimethyl[2-[7-methyl-4-[4-(trifluoromethyl)benzyloxy]indol-3-yl]ethyl]amine] | – | inactive | – | 90% | 81% | 131 nM | inactive | 7660 nM | – | – | – | –
3 | Cc1ccc(O)c2c(C[C@H]3CCN3C)c[nH]c12 [Compound 77, 7-Methyl-3-[((S)-1-methylazetidin-2-yl)methyl]indol-4-ol] | – | 41% | – | 69% | 66% | 7.3 nM | – | 49 nM | 57 nM | – | – | –
4 | CN(C)CCc1c[nH]c2cc(F)cc(O)c12 [Compound 36, 3-[2-(Dimethylamino)ethyl]-6-fluoroindol-4-ol] | 4.2 nM | 62% | 2.9 nM | 92% | – | – | – | – | – | 93% | 1.7 nM | –
5 | Cc1cc(O)c2c(CCN(C)C)c[nH]c2c1 [Compound 37, 3-[2-(Dimethylamino)ethyl]-6-methylindol-4-ol] | 189 nM | 41% | 59 nM | 88% | – | – | – | – | – | 95% | 1.5 nM | –
6 | Cc1ccc(O)c2c(CCN(C)C)c[nH]c12 [Compound 1, 3-[2-(Dimethylamino)ethyl]-7-methylindol-4-ol] | – | inactive | 66 nM | 72% | – | – | inactive | – | – | 79% | 6.9 nM | –
7 | CN(C)CCc1c[nH]c2c(C#N)ccc(O)c12 [Compound 64, 3-[2-(Dimethylamino)ethyl]-4-hydroxyindole-7-carbonitrile] | – | inactive | 267 nM | 49% | – | – | inactive | – | – | 79% | 88 nM | –
8 | CN(C)CCc1c[nH]c2c(CCO)ccc(O)c12 [Compound 7, 3-[2-(Dimethylamino)ethyl]-7-(2-hydroxyethyl)indol-4-ol] | – | inactive | – | 81% | 76% | 5.6 nM | inactive | 75 nM | – | – | – | –
9 | CN(C)CCc1c[nH]c2c(CCF)ccc(O)c12 [Compound 8, 3-[2-(Dimethylamino)ethyl]-7-(2-fluoroethyl)indol-4-ol] | – | inactive | – | inactive | – | – | inactive | – | – | 56% | 3930 nM | inactive
10 | Cc1cc(F)c(O)c2c(CCN(C)C)c[nH]c12 [Compound 30] | – | 8% | – | 64% | – | – | – | – | – | – | – | –
11 | CC(C)c1ccc(O)c2c(CCN(C)C)cn(C)c12 [Compound 11, 3-[2-(Dimethylamino)ethyl]-7-isopropyl-1-methylindol-4-ol] | – | inactive | 1160 nM | 66% | – | – | inactive | – | – | 88% | 22 nM | –
12 | CN(C)CCc1cn2c3c(cccc13)OCC2 [Compound 135, [2-(2,3-Dihydro-[1,4]oxazino[2,3,4-hi]indol-6-yl)ethyl]dimethylamine Hydrochloride] | – | 42% | – | 76% | 96% | 9 nM | – | 767 nM | 10.7 nM | – | – | –
13 | Cc1c(F)cc(O)c2c(CCN(C)C)c[nH]c12 [Compound 33, 3-[2-(Dimethylamino)ethyl]-6-fluoro-7-methylindol-4-ol] | – | inactive | 20 nM | 78% | – | – | inactive | – | – | 102% | 1.4 nM | –
14 | NCCc1c[nH]c2cccc(O)c12 [4-hydroxytryptamine, reference compound] | – | 100% | – | 100% | – | – | – | 2.9 nM | 0.8 nM | 99% | 0.35 nM | –
15 | CC(C)c1ccc(O)c2c(CCN(C)C)c[nH]c12 [Compound 10, 3-[2-(Dimethylamino)ethyl]-7-isopropylindol-4-ol] | – | inactive | 1070 nM | 40% | – | – | inactive | – | – | 60% | 34 nM | –
16 | COc1ccc(C)c2[nH]cc(CCN(C)C)c12 [Compound 26, [2-(4-Methoxy-7-methylindol-3-yl)ethyl]dimethylamine] | – | inactive | 95 nM | 68% | – | – | inactive | – | – | 113% | 3.5 nM | –
17 | COc1cc(F)c(C)c2[nH]cc(CCN(C)C)c12 [Compound 34, [2-(6-Fluoro-4-methoxy-7-methylindol-3-yl)ethyl]dimethylamine] | – | inactive | 16.9 nM | 84% | – | – | inactive | – | – | 94% | 1.8 nM | –
18 | CCc1ccc(O)c2c(CCN(C)C)c[nH]c12 [Compound 9, 3-[2-(Dimethylamino)ethyl]-7-ethylindol-4-ol] | – | inactive | 154 nM | 78% | – | – | inactive | – | – | 67% | 28 nM | –
19 | Cc1ccc(OP(=O)(O)O)c2c(CCN(C)C)c[nH]c12 [Compound 24] | – | inactive | 1150 nM | 69% | – | – | inactive | – | – | 69% | 370 nM | –
20 | Cc1ccc(O)c2c(CCN(C)C(C)C)c[nH]c12 [Compound 16, 3-[2-[Isopropyl(methyl)amino]ethyl]-7-methylindol-4-ol] | – | inactive | 150 nM | 77% | – | – | inactive | – | – | 103% | 53 nM | –
21 | Cc1ccc(O)c2c(CCN(C)C3CC3)c[nH]c12 [Compound 17] | – | inactive | 12.9 nM | 54% | – | – | inactive | – | – | 111% | 3.2 nM | –
22 | CN(C)CCc1c[nH]c2cccc(O)c12 [psilocin, reference compound] | – | 63% | – | 82% | – | – | – | – | – | – | – | –
23 | CN(C)CCc1c[nH]c2c(C(N)=O)ccc(O)c12 [Compound 65, 3-[2-(Dimethylamino)ethyl]-4-hydroxyindole-7-carboxamide] | – | inactive | – | inactive | 69% | 9960 nM | inactive | – | – | – | – | inactive
